One test addresses T1, human SGLT1 (Homo sapiens, UniProt P13866).
T1 construct: expressed in transfected cells
T1 sequence (P13866 1-664): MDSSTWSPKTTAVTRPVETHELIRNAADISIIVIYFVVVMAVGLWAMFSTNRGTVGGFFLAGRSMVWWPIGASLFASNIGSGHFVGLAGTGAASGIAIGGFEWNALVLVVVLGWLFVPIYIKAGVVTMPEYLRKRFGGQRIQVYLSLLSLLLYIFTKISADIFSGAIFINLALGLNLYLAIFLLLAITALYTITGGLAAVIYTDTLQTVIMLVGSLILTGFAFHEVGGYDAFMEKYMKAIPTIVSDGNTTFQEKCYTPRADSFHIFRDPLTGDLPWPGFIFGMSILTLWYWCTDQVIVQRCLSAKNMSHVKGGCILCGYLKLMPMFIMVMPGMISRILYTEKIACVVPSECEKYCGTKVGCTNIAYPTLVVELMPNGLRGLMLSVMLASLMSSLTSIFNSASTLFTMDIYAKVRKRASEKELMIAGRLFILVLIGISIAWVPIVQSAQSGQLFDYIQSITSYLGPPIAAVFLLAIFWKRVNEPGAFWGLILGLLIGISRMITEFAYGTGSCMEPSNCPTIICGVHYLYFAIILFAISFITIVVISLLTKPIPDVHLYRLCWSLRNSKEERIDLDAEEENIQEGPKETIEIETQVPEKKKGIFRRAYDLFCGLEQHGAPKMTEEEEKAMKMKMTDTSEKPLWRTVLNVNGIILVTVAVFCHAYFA
Briefly: SGLT1 assay: Na-dependent 14C-AMG uptake in CHO-K1 cells stably expressing human SGLT1. The class given is cell-based. The following applies: for pIC50: average if tested more than once; for SGLT1 %-inhibition / inhibition at 0.3 µM: @ 0.3 μM. As to the method:
(§1) The ability of the compounds of formula (I) of the present invention to treat an SGLT-mediated condition was determined using the following procedures:
(§2) SGLT1 and SGLT2 were cloned in form of cDNA from human small intestine (Genbank M24847), and from human kidney (Genbank M95549), respectively. Subsequently, each full cDNA was subcloned into pcDNA with each construct's integrity verified through follow-on sequencing. To generate CHO-K1 cells that stably express human SGLT1 or human SGLT2, CHO-K1 cells were transfected using DMRIE-C reagent (Life Technologies, Gaithersburg, Md.). Transfected cells were then selected in the presence of 500 μg/ml of the Geneticin (G418 Cellgro Catalog No. 30234-Cl)
(§3) Individual clones were then characterized using the following cell-based assay for sodium-dependent glucose transport:
(§4) Inhibition of SGLT1 and SGLT2 activity was assessed in CHO K1 cells stably expressing either human SGLT1 or SGLT2, using the SGLT specific glucose analog methyl-glucopyranoside (Sigma Catalog No. M-9376). Cells were plated (45,000 cells/well) in white wall 96-well plates (COSTAR, Cat #3903) for 24 hours in growth medium, then a final concentration of 10 mM Na-Butyrate (ALDRICH Cat #30341-0) was added. The cells were incubated for 24 hours. On the day of the assay, cells were rinsed and treated with test compounds (at concentrations of 0.001 μM to 10 μM) in assay buffer (50 mM HEPES, 20 mM Tris base, 5 mM KCl, 1 mM MgCl2, 1 mM CaCl2 and 137 mM NaCl, pH 7.4) for 10 minutes. Cells were then incubated with ^14C-a-methyl-d-glucopyranoside (AMG, Amersham Catalog No. CFB 76), using 0.07 μCi per well in 500 μM AMG final concentration. The cells were incubated for 2 hours at 37° C. with 5% CO2 and washed two times with ice-cold Phosphate Buffer Solution (Cellgro Catalog No. 21030-CV). The cells were then solubilized by adding 60 μl of MICROSCINT™20 and the Na-dependent ^14C-AMG uptake was quantified by measuring radioactivity. Plates were counted in a TopCount (Packard, Meriden, Conn.)
(§5) Representative compounds of the present invention were tested according to the procedures as described in Biological Example 1 and 2 above, with results as listed in Table 5, below. Results are reported as the %-inhibition or IC50 value. Variability for the functional assay was typically within 20%.

The target of a further test is T2, human SGLT2 (Homo sapiens, UniProt P31639).
T2 construct: expressed in transfected cells
T2 sequence (P31639 1-672): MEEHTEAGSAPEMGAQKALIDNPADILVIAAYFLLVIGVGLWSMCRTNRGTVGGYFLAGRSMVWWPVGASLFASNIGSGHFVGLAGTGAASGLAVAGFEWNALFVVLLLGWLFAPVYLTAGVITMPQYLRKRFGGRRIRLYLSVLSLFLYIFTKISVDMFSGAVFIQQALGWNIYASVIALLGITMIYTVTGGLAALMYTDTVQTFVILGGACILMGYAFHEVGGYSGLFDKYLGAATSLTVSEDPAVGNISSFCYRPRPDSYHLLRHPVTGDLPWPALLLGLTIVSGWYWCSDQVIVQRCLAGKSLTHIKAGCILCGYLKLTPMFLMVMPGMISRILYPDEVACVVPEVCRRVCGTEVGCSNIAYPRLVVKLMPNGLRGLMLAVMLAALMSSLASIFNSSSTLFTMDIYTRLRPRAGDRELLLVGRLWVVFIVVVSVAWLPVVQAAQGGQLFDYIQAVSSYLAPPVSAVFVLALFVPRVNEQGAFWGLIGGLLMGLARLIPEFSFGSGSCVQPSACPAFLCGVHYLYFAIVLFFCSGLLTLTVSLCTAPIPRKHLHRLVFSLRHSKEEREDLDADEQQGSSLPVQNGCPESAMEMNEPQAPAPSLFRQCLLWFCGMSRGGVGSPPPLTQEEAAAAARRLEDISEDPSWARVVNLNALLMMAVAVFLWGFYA
Briefly: SGLT2 assay: Na-dependent 14C-AMG uptake in CHO-K1 cells stably expressing human SGLT2. The class given is cell-based. The following applies: for pIC50: average if tested more than once. How it is done:
as §1, §2, §3, §4, §5

pIC50: −log10 of the molar value.

`COC(=O)N1CCc2sc(Cc3cc([C@@H]4O[C@H](CO)[C@@H](F)[C@H](O)[C@H]4O)c(O)cc3Cl)cc2C1` [Compound 73]: the values for the pIC50 on human SGLT1 and against human SGLT2 were 6.62 and 7.32, respectively.

`CC1COc2c(Cc3ccc4c(c3)OCCO4)cc(C3OC(CO)C(F)C(O)C3O)cc21` (mixture of isomers) [Compound 95] displayed an SGLT1 %-inhibition at human SGLT1 of 45.3% @ 0.3 μM. Also, the SGLT2 %-inhibition at human SGLT2 (@ 0.3 μM) is 62.7% @ 0.3 μM.

As for `[2H]C([2H])(c1ccc2c(c1)OCCO2)c1cc([C@@H]2O[C@H](CO)[C@@H](F)[C@H](O)[C@H]2O)c(F)cc1OC` [Compound 165], the pIC50 against human SGLT1 is 7.25; at human SGLT2, 7.80.

At human SGLT1, `Cc1cnc(N2CCc3sc(Cc4cc([C@@H]5O[C@H](CO)[C@@H](F)[C@H](O)[C@H]5O)c(O)cc4C)cc3C2)s1` [Compound 117] displayed an SGLT1 %-inhibition of 44.3% @ 0.3 μM. On human SGLT2 (@ 0.3 μM), this molecule had an SGLT2 %-inhibition of 69.9% @ 0.3 μM.

`COc1cc(O)c([C@@H]2O[C@H](CC#N)[C@@H](F)[C@H](O)[C@H]2O)cc1Cc1cc2ccccc2s1` [Compound 22]: at human SGLT1, the inhibition at 0.3 µM came out at 62.7%. The molecule further had a negative-log IC50 (pIC50) on human SGLT2 of 6.62.

For `Cc1cc(O)c([C@@H]2O[C@H](CO)[C@@H](F)[C@H](O)[C@H]2O)cc1Cc1cc2c(s1)CCN(C(=O)c1nccs1)C2` [Compound 84, (2-(5-((2S,3R,4R,5S,6R)-5-fluoro-3,4-dihydroxy-6-(hydroxymethyl)-tetrahydro-2H-pyran-2-yl)-4-hydroxy-2-methylbenzyl)-6,7-dihydrothieno[3,2-c]pyridin-5(4H)-yl)(thiazol-2-yl)methanone], the negative-log IC50 (pIC50) against human SGLT1 is 7.00; against human SGLT2, 7.44.

In the case of `O=C1COc2cc(Cc3cc([C@@H]4O[C@H](CO)[C@@H](F)[C@H](O)[C@H]4O)cc4c3OCC4)ccc2N1` [Compound 97], the SGLT1 %-inhibition at human SGLT1 worked out at 31.2% @ 0.3 μM. The molecule further gave an SGLT2 %-inhibition at human SGLT2 (@ 0.3 μM) of 67.9% @ 0.3 μM.

In the case of `Cc1ccc([C@@H]2O[C@H](CO)[C@@H](F)[C@H](O)[C@H]2O)cc1Cc1cc2c(s1)CCN(C(=O)C1CCCC1)C2` [Compound 87], the SGLT1 %-inhibition at human SGLT1 came to 48.7% @ 0.3 μM. This molecule gave an SGLT2 %-inhibition at human SGLT2 (@ 0.3 μM) of 59.0% @ 0.3 μM.

In the case of `COc1cc(Cl)c(Cc2cc3c(s2)CCN(C#N)C3)cc1[C@@H]1O[C@H](CO)[C@@H](F)[C@H](O)[C@H]1O` [Compound 99], on human SGLT1, the SGLT1 %-inhibition came out at 28.9% @ 0.3 μM. On human SGLT2 (@ 0.3 μM), the SGLT2 %-inhibition was 83.5% @ 0.3 μM.

Regarding `OC[C@H]1O[C@@H](c2cc(Cc3ccc4c(c3)OCCO4)c(Cl)c3c2CCO3)[C@H](O)[C@@H](O)[C@@H]1F` [Compound 154], the figures for the negative-log IC50 (pIC50) against human SGLT1 and against human SGLT2 were 7.38 and 8.70, respectively.

Regarding `COc1cc(O)c(C2OC(C(C)O)C(F)C(O)C2O)cc1Cc1cc2ccccc2s1` (single isomer, unassigned) [Compound 53], the values for the negative-log IC50 (pIC50) against human SGLT1 and against human SGLT2 were 6.98 and 7.59, respectively.

On to `CCOc1ccc(Cc2cc([C@@H]3O[C@H](CO)[C@@H](F)[C@H](O)[C@H]3O)c(O)c3c2OCC3)cc1` [Compound 63], for which the pIC50 at human SGLT1 was 6.91; on human SGLT2 it was 8.40.

With `Cc1cc(O)c([C@@H]2O[C@H](CO)[C@@H](F)[C@H](O)[C@H]2O)cc1Cc1cc2c(s1)CCCC2=O` [Compound 119], the negative logarithm of the IC50 (pIC50) against human SGLT1 is 6.81; against human SGLT2 it was 7.96.

For the molecule `COc1c(Cc2ccc3c(c2)SCCO3)cc([C@@H]2O[C@H](CO)[C@@H](F)[C@H](O)[C@H]2O)c2c1CCO2` [Compound 128, (2S,3R,4R,5S,6R)-2-(5-((2,3-dihydrobenzo[b][1,4]oxathiin-6-yl)methyl)-4-methoxy-2,3-dihydrobenzofuran-7-yl)-5-fluoro-6-(hydroxymethyl)-tetrahydro-2H-pyran-3,4-diol], the negative logarithm of the IC50 (pIC50) against human SGLT1 is 6.73; against human SGLT2 it was 7.21.

In the case of `[2H]C1([2H])Oc2ccc(Cc3cc([C@@H]4O[C@H](CO)[C@@H](F)[C@H](O)[C@H]4O)c(OC)c4c3OCC4)cc2OC1([2H])[2H]` [Compound 172, (2S,3R,4R,5S,6R)-5-fluoro-6-(hydroxymethyl)-2-[4-methoxy-7-[(2,2,3,3-tetradeuterio-1,4-benzodioxin-6-yl)methyl]-2,3-dihydrobenzofuran-5-yl]tetrahydropyran-3,4-diol], the negative-log IC50 (pIC50) is 7.35 against human SGLT1 and 8.15 against human SGLT2.

As to `Cc1cc(O)c([C@@H]2O[C@H](C(C)(C)O)[C@@H](F)[C@H](O)[C@H]2O)cc1Cc1cc2ccccc2s1` [Compound 39], the pIC50 was 6.42 against human SGLT1 and 6.91 against human SGLT2.

In the case of `Cc1ccc([C@@H]2O[C@H](CO)[C@@H](F)[C@H](O)[C@H]2O)cc1Cc1cc2c(s1)CCN(C#N)C2` [Compound 92, 2-(5-((2S,3R,4R,5S,6R)-5-fluoro-3,4-dihydroxy-6-(hydroxymethyl)-tetrahydro-2H-pyran-2-yl)-2-methylbenzyl)-6,7-dihydrothieno[3,2-c]pyridine-5(4H)-carbonitrile], the values for the inhibition at 0.3 µM against human SGLT1 and against human SGLT2 (@ 0.3 μM) were 29% and 76.2%, respectively.

`COc1c([C@@H]2O[C@H](CO)[C@@H](F)[C@H](O)[C@H]2O)cc(Cc2ccc3c(c2)OCCO3)c2c1CCO2` [Compound 65, (2S,3R,4R,5S,6R)-2-(7-((2,3-dihydrobenzo[b][1,4]dioxin-6-yl)methyl)-4-methoxy-2,3-dihydrobenzofuran-5-yl)-5-fluoro-6-(hydroxymethyl)tetrahydro-2H-pyran-3,4-diol]: the negative logarithm of the IC50 (pIC50) against human SGLT1 was 7.37; on human SGLT2 it was 8.05.

`COc1cc(O)c(C2OC(C(C)O)C(F)C(O)C2O)cc1Cc1cc2ccccc2s1` (single isomer, unassigned) [Compound 52]: the negative logarithm of the IC50 (pIC50) was 7.82 against human SGLT1 and 8.05 on human SGLT2.

For the molecule `CC(C)Oc1cc(O)c([C@@H]2O[C@H](CO)[C@@H](F)[C@H](O)[C@H]2O)cc1Cc1cc2ccccc2s1` [Compound 32], at human SGLT2 (@ 0.3 μM), the SGLT2 %-inhibition is reported as 15.3% @ 0.3 μM.

In turn, `CCOc1cc(O)c([C@@H]2O[C@H](CO)[C@@H](F)[C@H](O)[C@H]2O)cc1Cc1cc2ccccc2s1` [Compound 30] returned an SGLT2 %-inhibition at human SGLT2 (@ 0.3 μM) of 51.0% @ 0.3 μM.

On human SGLT2 (@ 0.3 μM), `COc1cc(O)c([C@@H]2O[C@H](CN)[C@@H](F)[C@H](O)[C@H]2O)cc1Cc1cc2ccccc2s1` [Compound 28] gave an SGLT2 %-inhibition of 50.3% @ 0.3 μM.

One may read the pIC50 as −log10 of the IC50, conventionally taken in molar units. Higher therefore signals a low IC50. The term inhibition denotes the relative decrease from the control value, in per cent. Higher therefore signals strong suppression.

Source of the values: patent publication US11014917B2, “5-fluoro-c-(aryl or heterocyclyl)-glycoside derivatives useful as dual SGLT1 / SGLT2 modulators” (Janssen Pharmaceutica NV, priority 2017, dated 2021).
